Consider 9 molecules from ChEMBL document CHEMBL1122462, “Potential antiatherosclerotic agents. 4. [(Functionalized-alkyl)amino]benzoic acid analogues of cetaben” (1983).

Assay [1] concerns Rattus norvegicus. Kind of assay: In vivo sterol lowering activity at dose of 0.10 % of the diet. It is filed as functional.
In assay [2] the test system is Rattus norvegicus. Kind of assay: In vivo sterol lowering activity, dosed as 0.03 % of the diet. It is filed as functional.
Assay [3] deals with Rattus norvegicus. The assay is described as follows: In vivo Triglyceride lowering activity at a dose of 0.10 % of the diet. It is filed as functional.
Assay [4] relates to Rattus norvegicus. Kind of assay: In vivo Sterol lowering activity at dose as 0.01% of the diet. It is filed as functional.
The subject of assay [5] is Rattus norvegicus. Kind of assay: In vivo Triglyceride lowering activity at dose as 0.03 % of the diet. Format: functional.
The subject of assay [6] is Rattus norvegicus. Kind of assay: In vivo Triglyceride lowering activity at dose as 0.01 % of the diet. It is filed as functional.
The target in assay [7] is T1, Sterol O-acyltransferase 1 (Rattus norvegicus) (UniProt O70536).
T1 sequence (whole entry): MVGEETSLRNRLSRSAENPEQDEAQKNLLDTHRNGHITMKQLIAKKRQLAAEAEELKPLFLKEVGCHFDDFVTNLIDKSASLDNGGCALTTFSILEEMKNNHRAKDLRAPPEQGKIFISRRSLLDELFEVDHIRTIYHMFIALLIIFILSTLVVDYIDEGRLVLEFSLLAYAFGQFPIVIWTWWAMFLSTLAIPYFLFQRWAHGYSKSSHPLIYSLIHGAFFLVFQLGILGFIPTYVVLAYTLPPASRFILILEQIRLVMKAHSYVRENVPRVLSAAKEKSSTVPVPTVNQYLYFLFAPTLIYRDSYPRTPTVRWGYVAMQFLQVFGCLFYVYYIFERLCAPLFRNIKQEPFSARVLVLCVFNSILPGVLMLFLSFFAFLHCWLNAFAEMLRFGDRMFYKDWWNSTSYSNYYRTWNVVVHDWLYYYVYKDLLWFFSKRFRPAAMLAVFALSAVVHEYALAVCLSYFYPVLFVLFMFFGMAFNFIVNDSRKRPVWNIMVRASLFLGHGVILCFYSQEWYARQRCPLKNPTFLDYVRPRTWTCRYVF
Kind of assay: In vitro inhibitory activity against acyl coenzyme A:cholesterol acyltransferase. On the set-up: concentration or dose not given beside the values. Particulars: concentration not given here.

As usually defined, the inhibition is the percentage by which the read-out fell short of the control. Take `CCCCCCCCCCCCCCCCN(C(=O)CCC(=O)O)c1ccc(C(=O)O)cc1`: the “serum sterol level, % of control” value in assay [1] worked out at 88%. Further, the “serum sterol level, percent of control” value amounted to 105% in assay [2] and 111% in assay [4]. For the same molecule, the “serum triglyceride level (% of control)” value was 117% in assay [3] and 84% in assay [6]. Further, in assay [5], the triglyceride lowering activity is recorded as 90%. The molecule further gave an inhibition in assay [7] of 13%.
With `CCOC(=O)c1ccc(NCCCCCCCCCCC[Si](C)(C)C)cc1`, the “serum sterol level, % of control” value in assay [1] is listed as below 57%. In addition, the entries for the “serum sterol level, percent of control” value in assay [2] and in assay [4] were 87% and 85%, respectively. Moreover, the “serum triglyceride level (% of control)” value in assay [3] is recorded as below 78%; in assay [6], 113%. Also, the triglyceride lowering activity in assay [5] is recorded as 111%. In assay [7], the inhibition amounted to 17%.
Consider `CCCCCCCCCCCCCCC(C)Nc1ccc(C(=O)O)cc1` (stereo not drawn), for which the “serum sterol level, % of control” value in assay [1] is reported as below 79%. Moreover, the “serum sterol level, percent of control” value stood at 95% in assay [2] and 114% in assay [4]. Moreover, the “serum triglyceride level (% of control)” value is on record as below 49% in assay [3] and 79% in assay [6]. In assay [5], the triglyceride lowering activity is recorded as 68%. This molecule also gave an inhibition in assay [7] below 51%.
With `CCCC[S+]([O-])CCCCCCCCCCCNc1ccc(C(=O)O)cc1` (stereo not drawn), in assay [1], the “serum sterol level, % of control” value was 91%. The results for the “serum sterol level, percent of control” value in assay [2] and in assay [4] were 95% and 106%, respectively. The “serum triglyceride level (% of control)” value in assay [3] is reported as below 66%; in assay [6] it was 87%. In assay [5], the triglyceride lowering activity is recorded as 94%. The same molecule gave an inhibition in assay [7] below 15%.
In the case of `CCCCCCCCCCC(N)CCCCCNc1ccc(C(=O)[O-])cc1.[Na+]` (stereo not drawn), the “serum sterol level, % of control” value in assay [1] came to 98%. In addition, the “serum sterol level, percent of control” value in assay [2] came to 117%; in assay [4], 100%. The “serum triglyceride level (% of control)” value in assay [3] came out at 120%; in assay [6] it was 68%. Further, the triglyceride lowering activity in assay [5] stood at 107%. In assay [7], this molecule came in with an inhibition of 7%.
`CCCCCCCCCCC(C)Nc1ccc(C(=O)O)cc1` (stereo not drawn): the “serum sterol level, % of control” value in assay [1] amounted to 92%. Further, the “serum sterol level, percent of control” value in assay [2] was below 90%; in assay [4] it was 94%. Also, the “serum triglyceride level (% of control)” value is below 58% in assay [3] and below 42% in assay [6]. In addition, in assay [5], the triglyceride lowering activity is listed as below 49%. This molecule registered an inhibition in assay [7] below 51%.
As for `O=C(CCCCCCCCCCOc1ccc(C(=O)O)cc1)Nc1ccc(C(=O)O)cc1`, the “serum sterol level, % of control” value in assay [1] is reported as 100%. Moreover, the “serum sterol level, percent of control” value in assay [2] is 93%; in assay [4], 100%. Besides, the entries for the “serum triglyceride level (% of control)” value in assay [3] and in assay [6] were 93% and 116%, respectively. For the same molecule, in assay [5], the triglyceride lowering activity is 106%. Further, the inhibition in assay [7] was below 33%.
For `O=C(O)c1ccc(NCCCCCCCCCCC(F)(F)F)cc1`, the “serum sterol level, % of control” value in assay [1] is given as below 69%. The “serum sterol level, percent of control” value in assay [2] is reported as below 80%; in assay [4] it was 92%. Also, the “serum triglyceride level (% of control)” value in assay [3] is listed as below 56%; in assay [6], below 57%. Besides, the triglyceride lowering activity in assay [5] is listed as below 57%. Moreover, in assay [7], the inhibition was 22%.
Consider `COCCCCCCCCCCCCCCCCNc1ccc(C(=O)O)cc1`, for which the “serum sterol level, % of control” value in assay [1] is below 86%. The “serum sterol level, percent of control” value was found to be 96% in assay [2] and 97% in assay [4]. For the same molecule, the “serum triglyceride level (% of control)” value in assay [3] is recorded as below 52%; in assay [6], 76%. The triglyceride lowering activity in assay [5] was below 73%. In assay [7], the inhibition is below 43%.
